Test results as given in ChEMBL document CHEMBL3886561, “Pyridine-and pyrazine derivatives” (2016).

Columns and labels:
[1] = biological target: T1, Serine/threonine-protein kinase TBK1 (Homo sapiens, UniProt Q9UHD2); experiment: TBK1 : The kinase assay is performed as 384-well Flashplate assay (for e.g. Topcount measurement. 0.6 nM TANK binding kinase (TBK1), 800 nM biotinylated MELK-derived peptide (Biotin-Ah-Ah-[…]) SEQ ID NO: 2 and 10 uM ATP (spiked with 0.25 uCi 33P-ATP/well) are incubated in a total volume of 50 ul (10 mM MOPS, 10 mM Mg-acetat, 0.1 mM EGTA, 1 mM DTT, 0.02% Brij35, 0.1% BSA, pH 7.5) with or without test compound for 120 Min at 30° C. The reaction is stopped with 25 ul 200 mM EDTA. After 30 Min at room temperature the liquid is removed and each well washed thrice with 100 ul 0.9% sodium chloride solution.
T1 sequence (Q9UHD2 whole entry): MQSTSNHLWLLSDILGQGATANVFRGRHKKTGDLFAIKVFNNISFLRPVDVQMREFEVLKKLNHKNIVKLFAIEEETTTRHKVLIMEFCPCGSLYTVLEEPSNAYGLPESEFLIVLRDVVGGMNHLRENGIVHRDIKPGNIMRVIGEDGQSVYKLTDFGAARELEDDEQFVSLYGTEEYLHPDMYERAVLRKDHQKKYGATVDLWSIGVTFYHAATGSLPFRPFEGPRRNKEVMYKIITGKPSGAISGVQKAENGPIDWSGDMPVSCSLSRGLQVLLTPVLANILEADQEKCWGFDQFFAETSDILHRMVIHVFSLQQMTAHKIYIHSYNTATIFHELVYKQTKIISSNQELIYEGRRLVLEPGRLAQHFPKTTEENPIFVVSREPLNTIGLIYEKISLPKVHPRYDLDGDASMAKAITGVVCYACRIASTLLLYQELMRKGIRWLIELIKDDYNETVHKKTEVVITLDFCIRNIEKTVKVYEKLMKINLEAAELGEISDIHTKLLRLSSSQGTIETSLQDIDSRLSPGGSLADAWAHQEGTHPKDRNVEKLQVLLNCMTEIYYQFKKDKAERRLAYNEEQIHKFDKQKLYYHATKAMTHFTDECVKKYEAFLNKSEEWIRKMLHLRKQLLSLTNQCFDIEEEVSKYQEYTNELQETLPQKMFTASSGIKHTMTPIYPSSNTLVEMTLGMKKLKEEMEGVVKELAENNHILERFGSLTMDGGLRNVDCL

[2] = biological target: T2, Inhibitor of nuclear factor kappa-B kinase subunit epsilon (Homo sapiens, UniProt Q14164); experiment: IKKepsilon Flashplate Assay: The kinase assay is performed either as 384-well Flashplate assay (for e.g. Topcount measurement). 1 nM IKKepsilon, 800 nM biotinylated IkappaBalpha(19-42) peptide (Biotin-C6-C6-[…]) SEQ ID NO: 1 and 10 uM ATP (spiked with 0.3 uCi 33P-ATP/well) are incubated in a total volume of 50 ul (10 mM MOPS, 10 mM Mg-acetat, 0.1 mM EGTA, 1 mM Dithiothreitol,0.02% Brij35, 0.1% BSA, 0.1% BioStab, pH 7.5) with or without test compound for 2 hours at 30° C. The reaction is stopped with 25 ul 200 mM EDTA. After 30 Min at room temperature the liquid is removed and each well washed thrice with 100 ul 0.9% sodium chloride solution. Non-specific reaction is determined in presence of 3 uM MSC2119074 (BX-795). Radioactivity is measured with Topcount (PerkinElmer).
T2 sequence (Q14164 whole entry): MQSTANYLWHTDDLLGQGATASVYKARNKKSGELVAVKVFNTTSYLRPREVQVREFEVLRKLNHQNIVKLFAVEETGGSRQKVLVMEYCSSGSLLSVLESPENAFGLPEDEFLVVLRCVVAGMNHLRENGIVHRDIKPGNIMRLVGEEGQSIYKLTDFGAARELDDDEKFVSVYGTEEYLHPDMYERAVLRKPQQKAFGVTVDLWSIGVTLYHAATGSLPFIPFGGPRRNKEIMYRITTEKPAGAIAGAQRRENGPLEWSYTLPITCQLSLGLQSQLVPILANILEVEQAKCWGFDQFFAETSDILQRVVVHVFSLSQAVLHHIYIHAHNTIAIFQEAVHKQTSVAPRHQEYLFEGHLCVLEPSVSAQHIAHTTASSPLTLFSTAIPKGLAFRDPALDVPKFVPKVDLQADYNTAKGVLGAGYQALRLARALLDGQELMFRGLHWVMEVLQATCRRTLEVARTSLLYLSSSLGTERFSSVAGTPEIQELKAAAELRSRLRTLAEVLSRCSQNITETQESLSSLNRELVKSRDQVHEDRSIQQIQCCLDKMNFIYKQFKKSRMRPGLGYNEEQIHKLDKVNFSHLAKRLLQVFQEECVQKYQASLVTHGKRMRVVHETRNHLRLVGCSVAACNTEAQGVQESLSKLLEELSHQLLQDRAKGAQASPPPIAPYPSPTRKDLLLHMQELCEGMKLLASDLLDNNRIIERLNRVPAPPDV

Compound `Nc1ncc(-c2cccc(C(=O)O)c2)cc1C(=O)Nc1ccncc1` has an IC50 [1] of 1100 nM and an IC50 [2] of 3200 nM.
